pIC50: −log10 of the molar value. Peptide text beside a SMILES is read from it.
Legend:
H-2 K^b = target: T1, H-2 K^b (Mus musculus, UniProt P01901); experiment: RMA-S K^b stabilization assay
T1 sequence (P01901 22-369): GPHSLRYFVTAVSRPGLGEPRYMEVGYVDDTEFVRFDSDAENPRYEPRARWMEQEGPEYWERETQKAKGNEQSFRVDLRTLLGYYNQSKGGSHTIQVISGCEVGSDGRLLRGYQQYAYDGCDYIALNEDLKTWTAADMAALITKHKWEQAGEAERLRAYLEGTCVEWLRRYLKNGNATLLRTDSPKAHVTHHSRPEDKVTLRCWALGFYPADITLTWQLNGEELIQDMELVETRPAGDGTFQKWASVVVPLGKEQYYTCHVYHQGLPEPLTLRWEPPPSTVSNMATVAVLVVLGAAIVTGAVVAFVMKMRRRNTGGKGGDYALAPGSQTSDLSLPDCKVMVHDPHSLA
T1 sequence (P01887 21-119 partner): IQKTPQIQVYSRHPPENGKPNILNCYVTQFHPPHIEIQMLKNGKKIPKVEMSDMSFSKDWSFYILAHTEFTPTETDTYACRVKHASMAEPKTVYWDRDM
Description: Data was analyzed after normalization and modeling using ECAnything (Prism 8). […] (A) RMA-S K^b stabilization assay. Variant peptides were titrated, added to RMA-S cells, and the relative H-2 K^b surface expression (MFI) was determined by flow cytometry. […] Each assay was repeated 4 times.
Titrated (100uM to 1pM) were added to RMA-S cells (5x10^4/well) and cultured overnight at 27C in 5% CO2. The cells were the shifted to 37C for 1–2 hours, and then their surface expression of K^b was analyzed by flow cytometry.
Normalized and fitted data from Fig 6A.using the ECanything nonlinear regression model (Prism 8) to fit the curves. By setting F = 50, the IC50 was determined for each data set. The points are the experimental data, the solid lines are the fitted line, and the dashed lines are the 95% confidence intervals. This experiment was repeated four times with similar results.

[1] = C57BL/6J mice, 37C, up to 60 minutes

Row | Compound | pIC50 (H-2 K^b) | further results
1 | CC[C@H](C)[C@H](N)C(=O)N[C@@H](CCSC)C(=O)N[C@@H](Cc1ccc(O)cc1)C(=O)N[C@@H](CC(N)=O)C(=O)N[C@@H](Cc1ccc(O)cc1)C(=O)N1CCC[C@H]1C(=O)N[C@H](C(=O)N[C@@H](CCSC)C(=O)O)[C@@H](C)O [A10T] (H-IMYNYPTM-OH) | 4.55 | –
2 | CC[C@H](C)[C@H](N)C(=O)N[C@@H](CCSC)C(=O)N[C@@H](Cc1ccc(O)cc1)C(=O)N[C@@H](CC(N)=O)C(=O)N[C@@H](Cc1ccc(O)cc1)C(=O)N1CCC[C@H]1C(=O)N[C@H](C(=O)N[C@@H](CCSC)C(=O)O)C(C)C [A10V] (H-IMYNYPVM-OH) | 4.67 | –
3 | CC[C@H](C)[C@H](N)C(=O)N[C@@H](CCSC)C(=O)N[C@@H](Cc1ccc(O)cc1)C(=O)N[C@@H](CC(N)=O)C(=O)N[C@@H](Cc1ccc(O)cc1)C(=O)N1CCC[C@H]1C(=O)N[C@@H](C)C(=O)N[C@H](C(=O)O)[C@@H](C)CC [M11I] (H-IMYNYPAI-OH) | 4.54 | –
4 | CC[C@H](C)[C@H](N)C(=O)N[C@@H](CCSC)C(=O)N[C@@H](Cc1ccc(O)cc1)C(=O)N[C@@H](CC(N)=O)C(=O)N[C@@H](Cc1ccc(O)cc1)C(=O)N[C@@H](CO)C(=O)N[C@@H](C)C(=O)N[C@@H](CCSC)C(=O)O [P9S] (H-IMYNYSAM-OH) | 4.23 | –
5 | CC[C@H](C)[C@H](NC(=O)[C@@H](NC(=O)[C@@H](N)CO)[C@@H](C)CC)C(=O)N[C@@H](CC(N)=O)C(=O)N[C@@H](Cc1ccccc1)C(=O)N[C@@H](CCC(=O)O)C(=O)N[C@@H](CCCCN)C(=O)N[C@@H](CC(C)C)C(=O)O [reference compound] | 5.14 | –
6 | IMANAPAM | – | Stabilization of K^b (in words) (H-2 K^b; RMA-S cells, surface K^b by flow cytometry, negative control peptide): failed to stabilize K^b
7 | MSQIMYNYPTMLGHAGDMAGYAGTLQSLGAEIAV | – | cleaved bond [1]: Y21-A22

Reference: publication PMC7597557 (PLoS Pathogens, 2020)
